Data on one compound can be found in article PMC4912613, “A broad analysis of resistance development in the malaria parasite” (Nature Communications, 2016).

For this experiment, the system named is PfATP4-Mut3 (PfATP4 F917L, parent 3D7). In kind it is cell-based, Plasmodium falciparum. The source says: To evaluate potential overlapping activity against known antimalarial drug targets, we performed dose-response studies with each compound against our assembled set of drug-resistant lines and their corresponding parents, in an asexual blood stage proliferation assay (Table 1). Comparisons were made to the drug-sensitive strain 3D7 when a parent was unavailable (TM90C2A, W2 and Dd2). As laboratories conducted EC50 assays with different strains and protocols, all comparisons were made between assays from the same laboratory and under the same assay conditions. Compounds displaying >5-fold EC50 shifts relative to the parent or sensitive strain were flagged as having potentially non-novel targets. Average fold shifts per strain ranged from 0.82 to 2.34, with a median of 1.23 indicating there was not common resistance to any one resistant clone. […]
The 48-h assay was carried out in a 96-well format following standard methods using the ^3H-hypoxanthine incorporation assay. […] Radioactivity was measured using a microbeta counter. […] All assays were conducted in triplicate using three independently grown cultures, and EC50 values were determined using the XLfit add-in module for Excel (version 2.3.1) from Grafit (version 5.3.1.3), where parameter h is the assay hill slope, x is the compound concentration and y is the inhibition of growth effect. […]

`CCN(CC)S(=O)(=O)c1ccc(-c2csc(Nc3ccc(C)c(C)c3)n2)cc1` [MMV009108]: the “EC50 fold-shift, ATP4-Mut3 vs parent” value is reported as 5.2 ×.
